# Literature values in patent EP3653214A1, “IMPROVED DOSAGE REGIMEN FOR URSODEOXYCHOLIC ACID BASED ON ALKALINE PHOSPHATASE LEVELS IN THE TREATMENT OF CHRONIC CHOLESTATIC LIVER DISEASES” (Disphar International B.V., priority 2018, dated 2020).
# Settings: in vivo
smiles,measurement,value
"C[C@H](CCC(=O)O)[C@H]1CC[C@H]2[C@@H]3[C@@H](O)C[C@@H]4C[C@H](O)CC[C@]4(C)[C@H]3CC[C@]12C [UDCA, ursodeoxycholic acid]",tolerability,generally well tolerated
